In one data set the test system is rat p38α mRNA. Briefly: Rat p38α mRNA levels in NR-8383 cells, quantitative real-time PCR. Format: cell-based. Particulars: 300 nM oligonucleotide with FuGENE 6, 24 hours, mRNA by quantitative real-time PCR, average of two experiments. The source says: (§1) Quantitation of p38α mRNA levels was accomplished by real-time quantitative PCR using the ABI PRISM™ 7600, 7700, or 7900 Sequence Detection System (PE-Applied Biosystems, Foster City, Calif.) according to manufacturer's instructions. This is a closed-tube, non-gel-based, fluorescence detection system which allows high-throughput quantitation of polymerase chain reaction (PCR) products in real-time. As opposed to standard PCR in which amplification products are quantitated after the PCR is completed, products in real-time quantitative PCR are quantitated as they accumulate. This is accomplished by including in the PCR reaction an oligonucleotide probe that anneals specifically between the forward and reverse PCR primers, and contains two fluorescent dyes. A reporter dye (e.g., FAM or JOE, obtained from either PE-Applied Biosystems, Foster City, Calif., Operon Technologies Inc., Alameda, Calif. or Integrated DNA Technologies Inc., Coralville, Iowa) is attached to the 5′ end of the probe and a quencher dye (e.g., TAMRA, obtained from either PE-Applied Biosystems, Foster City, Calif., Operon Technologies Inc., Alameda, Calif. or Integrated DNA Technologies Inc., Coralville, Iowa) is attached to the 3′ end of the probe. When the probe and dyes are intact, reporter dye emission is quenched by the proximity of the 3′ quencher dye. During amplification, annealing of the probe to the target sequence creates a substrate that can be cleaved by the 5′-exonuclease activity of Taq polymerase. […] With each cycle, additional reporter dye molecules are cleaved from their respective probes, and the fluorescence intensity is monitored at regular intervals by laser optics built into the ABI PRISM™ Sequence Detection System. In each assay, a series of parallel reactions containing serial dilutions of mRNA from untreated control samples generates a standard curve that is used to quantitate the percent inhibition after antisense oligonucleotide treatment of test samples.
(§2) Prior to quantitative PCR analysis, primer-probe sets specific to the target gene being measured are evaluated for their ability to be “multiplexed” with a GAPDH amplification reaction. In multiplexing, both the target gene and the internal standard gene GAPDH are amplified concurrently in a single sample. In this analysis, mRNA isolated from untreated cells is serially diluted. Each dilution is amplified in the presence of primer-probe sets specific for GAPDH only, target gene only (“single-plexing”), or both (multiplexing). Following PCR amplification, standard curves of GAPDH and target mRNA signal as a function of dilution are generated from both the single-plexed and multiplexed samples. If both the slope and correlation coefficient of the GAPDH and target signals generated from the multiplexed samples fall within 10% of their corresponding values generated from the single-plexed samples, the primer-probe set specific for that target is deemed multiplexable. Other methods of PCR are also known in the art.
(§3) PCR reagents were obtained from Invitrogen Corporation, (Carlsbad, Calif.). […] The RT reaction was carried out by incubation for 30 minutes at 48° C. Following a 10 minute incubation at 95° C. to activate the PLATINUM® Taq, 40 cycles of a two-step PCR protocol were carried out: 95° C. for 15 seconds (denaturation) followed by 60° C. for 1.5 minutes (annealing/extension).
(§4) Gene target quantities obtained by real time RT-PCR are normalized using either the expression level of GAPDH, a gene whose expression is constant, or by quantifying total RNA using RiboGreen™ (Molecular Probes, Inc. Eugene, Oreg.). GAPDH expression is quantified by real time RT-PCR, by being run simultaneously with the target, multiplexing, or separately. Total RNA is quantified using RiboGreen™ RNA quantification reagent (Molecular Probes, Inc. Eugene, Oreg.). Methods of RNA quantification by RiboGreen™ are taught in Jones, L. J., et al, (Analytical Biochemistry, 1998, 265, 368-374). […]
In general terms: Quantitative PCR measures a nucleic acid by following its amplification.

Another data set deals with mouse p38α mRNA. As to the kind of experiment: Mouse p38α mRNA levels in bEND.3 cells, quantitative real-time PCR. Particulars: bEND.3 cells, mRNA by quantitative real-time PCR, average of two experiments. Format: cell-based. On the set-up: % Inhib. mouse p38α: concentration or dose not given beside the values.
Text: as §1, §2, §3, §4

23 substances from US20040171566A1, “Antisense modulation of p38 mitogen activated protein kinase expression” (priority 1999, published 2004) can be followed below.

e = 2'-O-(2-methoxyethyl) (MOE); d = 2'-deoxy (DNA)

Turning to “320137 (antisense CACACACATCCCTAAGGAGA; sugars from the 5' end e5 d10 e5, all phosphorothioate, methylation of C not given here) [compound 320137]”, the “% Inhib. rat p38α” value in the data set on rat p38α mRNA was 44%. The “% Inhib. mouse p38α” value in the data set with mouse p38α mRNA is listed as 80%.
The corresponding values for “320150 (antisense GGATTCCTACAACATACAAA; sugars from the 5' end e5 d10 e5, all phosphorothioate, methylation of C not given here) [compound 320150]” are 62% and 82%.
Turning to “320106 (antisense AACGGTCTCGACAGCTTCTT; sugars from the 5' end e5 d10 e5, all phosphorothioate, methylation of C not given here) [compound 320106]”, in the data set on rat p38α mRNA, the “% Inhib. rat p38α” value came to 67%. Moreover, the “% Inhib. mouse p38α” value with mouse p38α mRNA was determined as 91%.
“320112 (antisense CGTTCTTCCGGTCAACAGCT; sugars from the 5' end e5 d10 e5, all phosphorothioate, methylation of C not given here) [compound 320112]”: the “% Inhib. rat p38α” value in the data set with rat p38α mRNA is on record as 58%. Also, the “% Inhib. mouse p38α” value with mouse p38α mRNA is listed as 93%.
The corresponding values for “320170 (antisense TGCTGGCTATACACAGACAC; sugars from the 5' end e5 d10 e5, all phosphorothioate, methylation of C not given here) [compound 320170]” are 55% and 83%.
The corresponding values for “320128 (antisense TCAAAGGACTGGTCATAAGG; sugars from the 5' end e5 d10 e5, all phosphorothioate, methylation of C not given here) [compound 320128]” are 37% and 79%.
The corresponding values for “320144 (antisense CCTTTTAAGGCACAAACAGA; sugars from the 5' end e5 d10 e5, all phosphorothioate, methylation of C not given here) [compound 320144]” are 39% and 83%.
Regarding “320116 (antisense TCAGAAGCTCAGCCCCTGGG; sugars from the 5' end e5 d10 e5, all phosphorothioate, methylation of C not given here) [compound 320116]”, in the data set on rat p38α mRNA, the “% Inhib. rat p38α” value was 73%. For the same substance, the “% Inhib. mouse p38α” value with mouse p38α mRNA is reported as 95%.
The corresponding values for “320135 (antisense ACCCCCTTCCACCATGAAGG; sugars from the 5' end e5 d10 e5, all phosphorothioate, methylation of C not given here) [compound 320135]” are 47% and 95%.
The corresponding values for “320160 (antisense GTTAATATGGTCTGTACCAG; sugars from the 5' end e5 d10 e5, all phosphorothioate, methylation of C not given here) [compound 320160]” are 43% and 53%.
As for “320131 (antisense CTTCCCCTCACAGTGAAGTG; sugars from the 5' end e5 d10 e5, all phosphorothioate, methylation of C not given here) [compound 320131]”, the “% Inhib. rat p38α” value with rat p38α mRNA stood at 39%. The “% Inhib. mouse p38α” value with mouse p38α mRNA was 92%.
The corresponding values for “320143 (antisense AGGCACAAACAGACTGACAG; sugars from the 5' end e5 d10 e5, all phosphorothioate, methylation of C not given here) [compound 320143]” are 54% and 88%.
Take “320103 (antisense AGCTCCTGCCGGTAGAACGT; sugars from the 5' end e5 d10 e5, all phosphorothioate, methylation of C not given here) [compound 320103]”: the “% Inhib. rat p38α” value in the data set with rat p38α mRNA came out at 55%. The “% Inhib. mouse p38α” value with mouse p38α mRNA was found to be 81%.
The corresponding values for “320159 (antisense TCTGACATCCTATGGCATAC; sugars from the 5' end e5 d10 e5, all phosphorothioate, methylation of C not given here) [compound 320159]” are 69% and 94%.
On to “320122 (antisense ATTTGCGAAGTTCATCTTCG; sugars from the 5' end e5 d10 e5, all phosphorothioate, methylation of C not given here) [compound 320122]”, for which the “% Inhib. rat p38α” value in the data set on rat p38α mRNA was found to be 48%. Moreover, in the data set on mouse p38α mRNA, the “% Inhib. mouse p38α” value was determined as 73%.
For “320138 (antisense TAAAGGCAGGGCCACAGGAG; sugars from the 5' end e5 d10 e5, all phosphorothioate, methylation of C not given here) [compound 320138]”, in the data set with rat p38α mRNA, the “% Inhib. rat p38α” value is 46%. Besides, the “% Inhib. mouse p38α” value with mouse p38α mRNA is reported as 87%.
The corresponding values for “320141 (antisense GCATGGCTGAGGGATAGCCT; sugars from the 5' end e5 d10 e5, all phosphorothioate, methylation of C not given here) [compound 320141]” are 73% and 83%.
With “320111 (antisense GTCAACAGCTCAGCCATGAT; sugars from the 5' end e5 d10 e5, all phosphorothioate, methylation of C not given here) [compound 320111]”, the “% Inhib. rat p38α” value in the data set on rat p38α mRNA was determined as 55%. The “% Inhib. mouse p38α” value in the data set on mouse p38α mRNA worked out at 86%.
The corresponding values for “320118 (antisense CAGACTCTGAGGAGATTTTC; sugars from the 5' end e5 d10 e5, all phosphorothioate, methylation of C not given here) [compound 320118]” are 69% and 47%.
The corresponding values for “320114 (antisense CTTAAAATGAGCTTCAACTG; sugars from the 5' end e5 d10 e5, all phosphorothioate, methylation of C not given here) [compound 320114]” are 60% and 71%.
Take “320155 (antisense CCCTGAGGATTCATGTTTAT; sugars from the 5' end e5 d10 e5, all phosphorothioate, methylation of C not given here) [compound 320155]”: the “% Inhib. rat p38α” value in the data set on rat p38α mRNA was found to be 73%. In addition, in the data set on mouse p38α mRNA, the “% Inhib. mouse p38α” value is 93%.
The corresponding values for “320168 (antisense TCACCTCATGGCTTGGCATC; sugars from the 5' end e5 d10 e5, all phosphorothioate, methylation of C not given here) [compound 320168]” are 56% and 83%.
The corresponding values for “320113 (antisense ATCAATATGGTCTGTACCAG; sugars from the 5' end e5 d10 e5, all phosphorothioate, methylation of C not given here) [compound 320113]” are 9% and 35%.
